The subject of data set [1] is rat intestinal epithelial cell line IEC-18.
The subject of data set [2] is colorectal cancer cell line Caco2/bbe. Nature of the data set: SRB assay, colorectal cancer cell line Caco2/bbe. In kind it is cell-based. Here is the method: (§1) L. casei ATCC334, LGG ATCC53103, L. coryniformis ATCC25600 and L. fermentis ATCC23271 were purchased from ATCC. These microorganisms were cultured overnight at 37° C. using MRS broth (Difco) and then transferred to MEM and cultured for one day. The cultured medium was centrifuged at 5,000×g for 10 minutes to collect the supernatant, which was filtered through a 0.2 μm filter and used as the culture supernatant in the following examples.
(§2) By using the colorectal cancer cell lines Caco2/bbe, SKCO-1 and SW620 as test cells and the culture supernatants of LGG ATCC53103, L. casei ATCC334, L. coryniformis ATCC25600 and L. fermentis ATCC23271 as measurement samples, an antitumor activity of each supernatant was measured by SRB-assay.
For orientation: The SRB assay estimates cell density from bound dye.

In data set [3] the test system is colorectal cancer cell line SKCO-1. Nature of the data set: SRB assay, colorectal cancer cell line SKCO-1. The following applies: SKCO-1, SRB assay. It is filed as cell-based. How it is done:
as §1, §2

The test system of data set [4] is colorectal cancer cell line SW620. The experiment in a line: SRB assay, colorectal cancer cell line SW620. In kind it is cell-based. Here is the method: as §1, §2
This fraction was subjected to mass spectrometry (TOF, ionization method: micro ESI) using Nano Frontier elD Liquid Chromatograpy Mass Spectrometer (Hitachi High-technologies), and a chart shown in FIG. 3A was obtained. The peak at m/z 763.2 in this chart was approximately consistent with that in the chart obtained for commercial ferrichrome (Sigma-Aldrich) by mass spectrometry in a similar mannar (FIG. 3B). By using commercially available ferrichrome as a measurement sample and the colorectal cancer cell line SW620 as a test cell, an antitumor activity was measured.

Data set [5] relates to mouse primary intestinal epithelial cells. Nature of the data set: SRB assay, mouse primary intestinal epithelial cells. In kind it is cell-based. How it is done:
Mouse primary intestinal epithelial cells were prepared and cultured according to the method as reported previously (Liu X et al., Am J Pathol. 2012 February; 180(2): 599-607).

Data set [6] relates to colorectal cancer cell line HT29. Nature of the data set: SRB assay, colorectal cancer cell line HT29. In kind it is cell-based.
In data set [7] the test system is colorectal cancer cell line HCT116. The experiment in a line: SRB assay, colorectal cancer cell line HCT116. In kind it is cell-based.
The subject of data set [8] is pancreatic cancer cell line bxpc3. The experiment in a line: SRB assay, pancreatic cancer cell line bxpc3. In kind it is cell-based.
Data set [9] deals with pancreatic cancer cell line suit2. Nature of the data set: SRB assay, pancreatic cancer cell line suit2. It is filed as cell-based.
Data set [10] relates to gastric cancer cell line MKN45. Nature of the data set: SRB assay, gastric cancer cell line MKN45. It is filed as cell-based.
Data set [11] concerns gastric cancer cell line SH-10-TC. Nature of the data set: SRB assay, gastric cancer cell line SH-10-TC. It is filed as cell-based.
For data set [12], the system named is esophageal cancer cell line OE33. Nature of the data set: SRB assay, esophageal cancer cell line OE33. It is filed as cell-based.
Data set [13] has as its system pancreatic cancer cell line KP3. The experiment in a line: Antitumor activity, pancreatic cancer cell line KP3. In kind it is cell-based.
Data set [14] concerns pancreatic cancer cell line KP1N. Nature of the data set: Antitumor activity, pancreatic cancer cell line KP1N. It is filed as cell-based.
For data set [15], the system named is pancreatic cancer cell line KP3L. The experiment in a line: Antitumor activity, pancreatic cancer cell line KP3L. In kind it is cell-based.
For data set [16], the system named is pancreatic cancer cell line Miapaca. The experiment in a line: Antitumor activity, pancreatic cancer cell line Miapaca. It is filed as cell-based.
Data set [17] concerns gastric cancer cell line MKN7. The experiment in a line: Antitumor activity, gastric cancer cell line MKN7. It is filed as cell-based.
Data set [18] concerns gastric cancer cell line MKN74. The experiment in a line: Antitumor activity, gastric cancer cell line MKN74. It is filed as cell-based.
Data set [19] relates to esophageal cancer cell line OE19. The experiment in a line: Antitumor activity, esophageal cancer cell line OE19. In kind it is cell-based.
Data set [20] deals with colorectal cancer cell line SW620. The experiment in a line: SW620 subcutaneous transplantation in BALB/c-nude mice. The following applies: 10 μg/day to the transplantation site, daily, observed for 9 days, vs PBS. In kind it is in vivo. The source says:
2×10^6 cells of colorectal cancer cell line SW620 were transplanted subcutaneously into the back of BALB/c-nude mice. […] The appearance of the mice on day 1 after transplantation and on day 9 after transplantation are shown in FIG. 6, and the change in tumor mass volume is shown in FIG. 7, respectively.

Data set [21] deals with gastric cancer cells MKN45. The experiment in a line: MKN45 subcutaneous transplantation in BALB/c nude mice. It is filed as in vivo. The conditions noted are these: 100 μg daily into the transplantation site, vs PBS. Here is the method: Two groups of BALB/c nude mice (n=6/group) were transplanted with 1×10^6 gastric cancer cells MKN45 by subcutaneous injection into their back. Each day from the day following transplantation, 100 μg of ferrichrome dissolved in PBS in one group and PBS alone in the other group were administered into the transplantation site, and the mice were kept under normal breeding conditions for 21 days. Photographs of the transplantation site 1 day and 19 days after transplantation are shown in FIG. 19, and the change in tumor volume ratio when the tumor volume 1 day after transplantation set to 1 is shown in FIG. 20.

Data set [22] relates to pancreatic cancer cell Suit2. Nature of the data set: Suit2 subcutaneous transplantation in nude mice. In kind it is in vivo. The conditions noted are these: 100 μg intraperitoneally once every two days for 12 days, vs PBS. How it is done:
Two days after subcutaneous transplantation of 1×10^6 pancreatic cancer cell Suit2 in two groups of nude mice (n=5/group), 100 μg of ferrichrome dissolved in PBS in one group and PBS alone in the other group were administered intraperitoneally once every two days for 12 days under normal breeding Conditions. A photograph of the transplantation site 12 days after transplantation is shown in FIG. 21, and the change in volume of the tumor mass is shown in FIG. 22.

Data set [23] has as its system tumor in the large intestine. Nature of the data set: AOM-DSS chemical carcinogenic mice, oral administration. In kind it is in vivo. The following applies: 50 μg orally daily for 28 days, vs PBS. Here is the method:
Azoxymethane (AOM) was administered intraperitoneally at 10 mg/kg to BALB/c mice (6 weeks old, male). Following 1 week breeding after AOM treatment, mice were administered drinking water containing dextran sulfate sodium (DSS, MP bio) diluted to 1.5% with distilled water by free access for 1 week. After a 1-week wash-out period, mice were administered drinking water containing dextran sulfate sodium (DSS, MP bio) diluted to 1% with distilled water by free access for 1 week, to prepare chemical carcinogenic models. After one more 1-week wash-out period, 50 μg of ferrichrome diluted in PBS was orally administered daily for 28 days under normal breeding conditions. After breeding, the large intestine was taken out from the mice and the tumor area was measured.
Normal mice not administered AOM and DSS and chemical carcinogenic mice orally administered PBS alone were prepared, respectively, and the tumor area in the large intestine was measured in the same manner. Photographs showing the appearance of the large intestine in each mouse are shown in FIG. 23, and tumor areas in the large intestine are shown in FIG. 24.

The test system of data set [24] is tumor in the large intestine. Nature of the data set: AOM-DSS chemical carcinogenic mice, intraperitoneal administration. It is filed as in vivo. The conditions noted are these: 100 μg intraperitoneally once every 2 days for 49 days, vs PBS. Here is the method: Azoxymethane (AOM) was administered intraperitoneally at 10 mg/kg to BALB/c mice (6 weeks old, male). Following 1 week breeding after AOM treatment, mice were administered drinking water containing dextran sulfate sodium (DSS, MP bio) diluted to 1% with distilled water by free access for 1 week. After a 1-week wash-out period, 100 μg of ferrichrome dissolved in PBS was intraperitoneally administered once every 2 days for 49 days under normal breeding conditions. After breeding, the large intestine was taken out from the mice and the tumor area was measured.
Normal mice not administered AOM and DSS and chemical carcinogenic mice intraperitoneally administered PBS alone were prepared, respectively, and the tumor area in the large intestine was measured in the same manner. Photographs showing the appearance of the large intestine in each mouse are shown in FIG. 25, and tumor areas in the large intestine are shown in FIG. 26.

Data set [25] is described as follows: Blood AST, ALT and serum iron in C57/BL6 mice. The following applies: oral or intravenous, 10 μg or 100 μg/day for 7 days, vs controls. It is filed as in vivo. How it is done:
Blood AST (aspartate aminotransferase), ALT (alanine aminotransferase), and serum iron were measured in C57/BL6 mice (n=5) after oral or intravenous administration of 10 μg or 100 μg of ferrichrome/day for 7 days.

Data set [26] relates to cleaved caspase-3. Nature of the data set: Western blotting for cleaved caspase-3 in SW620. The following applies: ferrichrome-treated SW620, Western blotting. It is filed as cell-based. An excerpt: (§3) Total proteins recovered from the ferrichrome-treated colorectal cancer cell line SW620 using mammalian cell extraction kit (BioVision) were subjected to Western blotting using specific antibodies for cleaved caspase-3 and PARP (Cell Signaling), respectively.
For orientation: Immunoblotting shows a protein as a band on a membrane.

The subject of data set [27] is PARP. The experiment in a line: Western blotting for PARP in SW620. It is filed as cell-based. The conditions noted are these: ferrichrome-treated SW620, Western blotting.
Excerpt: as §3

Data set [28] relates to colorectal cancer cell line SW620. Nature of the data set: TUNEL staining of SW620. In kind it is cell-based. The following applies: SW620, 0.1 μg/mL.
Data set [29] has as its system DNA damage-inducible transcript 3 (DDIT3). The experiment in a line: DDIT3 expression in SW620. It is filed as cell-based. Here is the method: Changes in mRNA expression between ferrichrome-treated and untreated colorectal cancer cell line SW620 were measured by high-throughput sequence analysis using a MetaCore software program. […] DDIT3 is a protein known to be involved in Bax-Bak mitochondrial permeation and JNK signaling (Tabas I, Ron D. Nat Cell Biol. 2011 March; 13(3): 184-90).

Data set [30] has as its system phosphorylated JNK. Nature of the data set: Western blotting for phosphorylated JNK in SW620. In kind it is cell-based. The following applies: ferrichrome-treated SW620, Western blotting.
The test system of data set [31] is rat intestinal epithelial cell line IEC-18. Nature of the data set: SRB assay, rat intestinal epithelial cell line IEC-18. The conditions noted are these: rat intestinal epithelial cells.

“Also recorded” adds a separate entry of the source. Read-outs that look alike come from different tables or passages of the source. Where a SMILES comes first, the peptide text is derived from it. [ ]: non-standard residue; d: D form. Orn(N5-OH,N5-Ac) = CC(=O)N(O)CCC[C@H](N)C(=O)O

`O=c1[nH]cc(F)c(=O)[nH]1` [5-FU, 5-fluorouracil]: the “effect on cell density of IEC-18” value in [1] was “reduced a cell density”.

With `N.N.[Cl][Pt][Cl]` [cisplatin], in [1], the “effect on cell density of IEC-18” value is listed as “reduced a cell density”.

Consider `CC(=O)N([O-])CCC[C@@H]1NC(=O)CNC(=O)CNC(=O)CNC(=O)[C@H](CCCN([O-])C(C)=O)NC(=O)[C@H](CCCN([O-])C(C)=O)NC1=O.[Fe+3]` [ferrichrome] (cyclo(GGG[Orn(N5-OH,N5-Ac)][Orn(N5-OH,N5-Ac)][Orn(N5-OH,N5-Ac)])), for which the “antitumor activity (cell density, OD at 510 nm)” value was “dose-dependent antitumor activity” in data set [2]; “exhibited an antitumor activity” in data set [3]; “dose-dependent antitumor activity” in [4]; “strong antitumor activity” in data set [4] (listed as Ferrichrome); “dose-dependent antitumor activity” in data set [8]; “dose-dependent antitumor activity” in data set [9]. Besides, the “antitumor activity (cell density, OD at 510 nm)” value in data set [10], in [11] and in data set [12] was “dose-dependent antitumor activity” each time. Moreover, in data set [4], the “antitumor activity compared with 5-FU and cisplatin” value is given as “higher antitumor activity”. In addition, in data set [5], the “effect on cell density of mouse primary intestinal epithelial cells” value is listed as “not significantly reducing cell densities”. Further, the antitumor activity result is reported as “exhibited an antitumor activity” in [6]; “exhibited an antitumor activity” in data set [7]; “exhibit an antitumor activity” in data set [13]; “exhibit an antitumor activity” in [14]; “exhibit an antitumor activity” in data set [15]; “exhibit an antitumor activity” in [16]. Further, the antitumor activity result in [17], in data set [18] and in data set [19] was “exhibit an antitumor activity” each time. Also, in [20], the “growth of the tumor mass (tumor mass volume)” value is “markedly inhibited the growth of the tumor mass”. Further, the “tumor volume ratio (volume 1 day after transplantation set to 1)” value in data set [21] (21 days) was “suppressed”. The “tumor mass size at the transplantation site” value in data set [21] is “reduced to such an extent that it could be clearly distinguished by the naked eye”. Further, in data set [22], the “increase in tumor volume” value was “markedly suppressed”. In addition, the “tumor area in the large intestine” value in data set [23] and in [24] was “significantly suppressed” in each case. Besides, the “blood ALT (alanine aminotransferase)” value in [25] is “No significant changes”. The “blood AST (aspartate aminotransferase)” value in [25] is “No significant changes”. Also, in [25], the serum iron result was “No significant changes”. In addition, the “expression of cleaved caspase-3” value in data set [26] was “increased dose-dependently”. Besides, in data set [27], the “expression of PARP” value is recorded as “increased dose-dependently”. Moreover, the “induction of apoptosis (TUNEL stain-positive cells)” value in data set [28] is given as “induction of apoptosis was also confirmed”. Further, in data set [29] (SW620, RT-PCR and Western blotting), the “expression of DDIT3” value was “enhanced expression”. Besides, the “mRNA expression level of DDIT3” value in data set [29] (SW620 treated vs untreated, high-throughput sequence analysis) was “remarkable change (increase in expression)”. For the same compound, the “expression of phosphorylated JNK” value in data set [30] was “increased”. Also, the “effect on cell density of IEC-18” value in data set [31] is given as “not significantly reducing cell densities; also recorded: did not significantly affect the cell density”.

The values above are taken from US10576126B2, “Antitumor agent” (NATIONAL UNIVERSITY CORPORATION ASAHIKAWA MEDICAL UNIVERSITY, priority 2016, dated 2020).
